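GI50 is the concentration that inhibits growth by half. The concentration for full growth arrest is given as TGI.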
How the values were obtained:
Test in all cases: NCI tumour cell line growth inhibition, 384-well format
[1] = system: SNB-19 CNS
[2] = system: HCC-2998 colon
[3] = system: SN12C renal
[4] = system: ACHN renal
[5] = system: EKVX NSCLC
[6] = system: SW-620 colon
[7] = system: NCI-H226 lung
[8] = system: CAKI-1 renal
[9] = system: KM12 colon
[10] = system: UACC-257 melanoma
[11] = system: PC-3 prostate
[12] = system: RXF 393 renal
[13] = system: UO-31 renal
[14] = system: UACC-62 melanoma
[15] = system: CCRF-CEM leukemia
[16] = system: T-47D breast
[17] = system: HOP-62 NSCLC
[18] = system: OVCAR-5 ovarian
[19] = system: DU-145 prostate
[20] = system: SK-OV-3 ovarian
[21] = system: SF-268 CNS
[22] = system: MDA-MB-435 melanoma
[23] = system: SF-295 CNS
[24] = system: SNB-75 CNS
[25] = system: OVCAR-4 ovarian
[26] = system: M14 melanoma
[27] = system: RPMI-8226 leukemia
[28] = system: 786-0 renal
[29] = system: MDA-MB-231 breast
[30] = system: HS 578T breast
[31] = system: HT29 colon
[32] = system: HOP-92 NSCLC
[33] = system: NCI-H460 NSCLC
[34] = system: SF-539 CNS
[35] = system: U251 glioblastoma
[36] = system: A549 NSCLC
[37] = system: OVCAR-3 ovarian
[38] = system: TK-10 renal
[39] = system: SK-MEL-28 melanoma
[40] = system: HCT-116 colon
[41] = system: NCI-H322M lung
[42] = system: NCI-H23 lung
[43] = system: SK-MEL-5 melanoma
[44] = system: MALME-3M melanoma
[45] = system: IGROV1 ovarian
[46] = system: MCF7 breast
[47] = system: HL-60(TB) leukemia
[48] = system: A498 renal
[49] = system: MDA-MB-468 breast
[50] = system: NCI/ADR-RES ovarian
[51] = system: MOLT-4 leukemia
[52] = system: K-562 leukemia
[53] = system: COLO 205 colon
[54] = system: HCT-15 colon
[55] = system: BT-549 breast
[56] = system: OVCAR-8 ovarian
[57] = system: NCI-H522 lung
[58] = system: LOX IMVI melanoma

COc1cc2cc(C(=O)CCC(=O)O)sc2cc1OC
GI50 [1]: > 100 µM
TGI [1]: > 100 µM
GI50 [2]: > 100 µM
TGI [2]: > 100 µM
GI50 [3]: > 100 µM
TGI [3]: > 100 µM
GI50 [4]: > 100 µM
TGI [4]: > 100 µM
GI50 [5]: > 100 µM
TGI [5]: > 100 µM
GI50 [6]: > 100 µM
TGI [6]: > 100 µM
GI50 [7]: 19.5 µM
TGI [7]: 74.4 µM
GI50 [8]: > 100 µM
TGI [8]: > 100 µM
GI50 [9]: > 100 µM
TGI [9]: > 100 µM
GI50 [10]: > 100 µM
TGI [10]: > 100 µM
GI50 [11]: > 100 µM
TGI [11]: > 100 µM
GI50 [12]: 25 µM
TGI [12]: > 100 µM
GI50 [13]: > 100 µM
TGI [13]: > 100 µM
GI50 [14]: > 100 µM
TGI [14]: > 100 µM
GI50 [15]: > 100 µM
TGI [15]: > 100 µM
GI50 [16]: > 100 µM
TGI [16]: > 100 µM
GI50 [17]: > 100 µM
TGI [17]: > 100 µM
GI50 [18]: > 100 µM
TGI [18]: > 100 µM
GI50 [19]: > 100 µM
TGI [19]: > 100 µM
GI50 [20]: > 100 µM
TGI [20]: > 100 µM
GI50 [21]: > 100 µM
TGI [21]: > 100 µM
GI50 [22]: > 100 µM
TGI [22]: > 100 µM
GI50 [23]: > 100 µM
TGI [23]: > 100 µM
GI50 [24]: > 100 µM
TGI [24]: > 100 µM
GI50 [25]: > 100 µM
TGI [25]: > 100 µM
GI50 [26]: > 100 µM
TGI [26]: > 100 µM
GI50 [27]: > 100 µM
TGI [27]: > 100 µM
GI50 [28]: > 100 µM
TGI [28]: > 100 µM
GI50 [29]: > 100 µM
TGI [29]: > 100 µM
GI50 [30]: > 100 µM
TGI [30]: > 100 µM
GI50 [31]: > 100 µM
TGI [31]: > 100 µM
GI50 [32]: > 100 µM
TGI [32]: > 100 µM
GI50 [33]: > 100 µM
TGI [33]: > 100 µM
GI50 [34]: > 100 µM
TGI [34]: > 100 µM
GI50 [35]: > 100 µM
TGI [35]: > 100 µM
GI50 [36]: > 100 µM
TGI [36]: > 100 µM
GI50 [37]: > 100 µM
TGI [37]: > 100 µM
GI50 [38]: > 100 µM
TGI [38]: > 100 µM
GI50 [39]: > 100 µM
TGI [39]: > 100 µM
GI50 [40]: > 100 µM
TGI [40]: > 100 µM
GI50 [41]: > 100 µM
TGI [41]: > 100 µM
GI50 [42]: > 100 µM
TGI [42]: > 100 µM
GI50 [43]: > 100 µM
TGI [43]: > 100 µM
GI50 [44]: > 100 µM
TGI [44]: > 100 µM
GI50 [45]: > 100 µM
TGI [45]: > 100 µM
GI50 [46]: > 100 µM
TGI [46]: > 100 µM
GI50 [47]: 22.7 µM
TGI [47]: 45.8 µM
GI50 [48]: 33.6 µM
TGI [48]: > 100 µM
GI50 [49]: > 100 µM
TGI [49]: > 100 µM
GI50 [50]: > 100 µM
TGI [50]: > 100 µM
GI50 [51]: > 100 µM
TGI [51]: > 100 µM
GI50 [52]: > 100 µM
TGI [52]: > 100 µM
GI50 [53]: > 100 µM
TGI [53]: > 100 µM
GI50 [54]: > 100 µM
TGI [54]: > 100 µM
GI50 [55]: > 100 µM
TGI [55]: > 100 µM
GI50 [56]: > 100 µM
TGI [56]: > 100 µM
GI50 [57]: > 100 µM
TGI [57]: > 100 µM
GI50 [58]: > 100 µM
TGI [58]: > 100 µM
